Reference: patent US10807992B2, “Single enantiomer antiparasitic compounds” (priority 2017, dated 2020)
Like-named read-outs stand apart in the source and are kept apart here.

System: Aedes aegypti
Assay: In vitro contact activity against adult mosquitoes (coated vial)
Protocol: Aedes aegypti (Louisiana Biologicals Inc., New Orleans, La.) eggs were allowed to hatch, close, and age between 3-5 days in an environmental chamber at 26° C., 80% humidity with light/dark cycles.
For mosquito assays, an aliquot from each compound stock was added to an acetone/triton solution to achieve the desired top doses for the study. Serial dilutions were conducted from the top dose (i.e. 50 ppm) to achieve the desired titration range for EC50 and EC90 determination. The final DMSO concentration in each test vial was 0.5%. A 459 μL aliquot of each compound formulation was transferred to a vial and vials were immediately placed on an unheated roller unit to allow for an even coating of the vial walls. The vials were loosely capped and allowed to dry for a minimum of four hours in a chemical fume hood.
For both contact and ingestion assays, five female Aedes aegypti adults were added to each vial or cage. The test vials for contact assays were held in an environmental chamber at 24° C., 80% humidity with light/dark cycles (12 hours each). The cages for mosquito ingestion assays were held in a temperature-controlled artificial feeding apparatus to allow continual access to organic bovine blood containing the desired concentration of compound. Fresh aliquots of compound-spiked bovine blood were provided daily for the duration of the study.
Mosquitoes showing no movement or mosquitoes that were knocked down were noted as dead. Results from trial 1 and trial 2 contact assays are shown in Tables 12 and 13, respectively and the results from trial 3 mosquito ingestion assay is shown in table 14.
For the mosquito contact and ingestion assays, each replicate contained 5 mosquitoes. For ease of calculation, the two replicates were added to equal a total of 10 mosquitoes.

## O=C(CC(F)(F)F)N1CC2(C1)OCc1cc(C3=NSC(c4cc(Cl)c(F)c(Cl)c4)(C(F)(F)F)C3)ccc12 (racemic) [C1 racemate, 1-[6-[5-(3,5-dichloro-4-fluoro-phenyl)-5-(trifluoromethyl)-4H-isothiazol-3-yl]spiro[1H-isobenzofuran-3,3′-azetidine]-1′-yl]-3,3,3-trifluoro-propan-1-one]
0.5 h, read-out: % Mortality R1 + R2, Trial 1, contact assay, dose 0.049 μM, 0.5 Hr
  mortality at 0.049 µM: 0%
0.5 h, read-out: % Mortality R1 + R2, Trial 1, contact assay, dose 0.20 μM, 0.5 Hr
  mortality at 0.2 µM: 0%
0.5 h, read-out: % Mortality R1 + R2, Trial 1, contact assay, dose 0.78 μM, 0.5 Hr
  mortality at 0.78 µM: 0%
0.5 h, read-out: % Mortality R1 + R2, Trial 1, contact assay, dose 3.125 μM, 0.5 Hr
  mortality at 3.125 µM: 0%
0.5 h, read-out: % Mortality R1 + R2, Trial 1, contact assay, dose 12.5 μM, 0.5 Hr
  mortality at 12.5 µM: 0%
0.5 h, read-out: % Mortality R1 + R2, Trial 1, contact assay, dose 50 μM, 0.5 Hr
  mortality at 50 µM: 0%
0.5 h, read-out: % Mortality R1 + R2, Trial 2, contact assay, dose 0.049 μM, 0.5 Hr
  mortality at 0.049 µM: 0%
0.5 h, read-out: % Mortality R1 + R2, Trial 2, contact assay, dose 0.20 μM, 0.5 Hr
  mortality at 0.2 µM: 0%
0.5 h, read-out: % Mortality R1 + R2, Trial 2, contact assay, dose 0.78 μM, 0.5 Hr
  mortality at 0.78 µM: 0%
0.5 h, read-out: % Mortality R1 + R2, Trial 2, contact assay, dose 3.125 μM, 0.5 Hr
  mortality at 3.125 µM: 0%
0.5 h, read-out: % Mortality R1 + R2, Trial 2, contact assay, dose 12.5 μM, 0.5 Hr
  mortality at 12.5 µM: 0%
0.5 h, read-out: % Mortality R1 + R2, Trial 2, contact assay, dose 50 μM, 0.5 Hr
  mortality at 50 µM: 0%
1 h, read-out: % Mortality R1 + R2, Trial 1, contact assay, dose 0.049 μM, 1 hr
  mortality at 0.049 µM: 0%
1 h, read-out: % Mortality R1 + R2, Trial 1, contact assay, dose 0.20 μM, 1 hr
  mortality at 0.2 µM: 0%
1 h, read-out: % Mortality R1 + R2, Trial 1, contact assay, dose 0.78 μM, 1 hr
  mortality at 0.78 µM: 0%
1 h, read-out: % Mortality R1 + R2, Trial 1, contact assay, dose 3.125 μM, 1 hr
  mortality at 3.125 µM: 0%
1 h, read-out: % Mortality R1 + R2, Trial 1, contact assay, dose 12.5 μM, 1 hr
  mortality at 12.5 µM: 0%
1 h, read-out: % Mortality R1 + R2, Trial 1, contact assay, dose 50 μM, 1 hr
  mortality at 50 µM: 0%
1 h, read-out: % Mortality R1 + R2, Trial 2, contact assay, dose 0.049 μM, 1 hr
  mortality at 0.049 µM: 0%
1 h, read-out: % Mortality R1 + R2, Trial 2, contact assay, dose 0.20 μM, 1 hr
  mortality at 0.2 µM: 0%
1 h, read-out: % Mortality R1 + R2, Trial 2, contact assay, dose 0.78 μM, 1 hr
  mortality at 0.78 µM: 0%
1 h, read-out: % Mortality R1 + R2, Trial 2, contact assay, dose 3.125 μM, 1 hr
  mortality at 3.125 µM: 0%
1 h, read-out: % Mortality R1 + R2, Trial 2, contact assay, dose 12.5 μM, 1 hr
  mortality at 12.5 µM: 0%
1 h, read-out: % Mortality R1 + R2, Trial 2, contact assay, dose 50 μM, 1 hr
  mortality at 50 µM: 0%
6 h, read-out: % Mortality R1 + R2, Trial 1, contact assay, dose 0.049 μM, 6 hr
  mortality at 0.049 µM: 0%
6 h, read-out: % Mortality R1 + R2, Trial 1, contact assay, dose 0.20 μM, 6 hr
  mortality at 0.2 µM: 0%
6 h, read-out: % Mortality R1 + R2, Trial 1, contact assay, dose 0.78 μM, 6 hr
  mortality at 0.78 µM: 0%
6 h, read-out: % Mortality R1 + R2, Trial 1, contact assay, dose 3.125 μM, 6 hr
  mortality at 3.125 µM: 0%
6 h, read-out: % Mortality R1 + R2, Trial 1, contact assay, dose 12.5 μM, 6 hr
  mortality at 12.5 µM: 0%
6 h, read-out: % Mortality R1 + R2, Trial 1, contact assay, dose 50 μM, 6 hr
  mortality at 50 µM: 80%
6 h, read-out: % Mortality R1 + R2, Trial 2, contact assay, dose 0.049 μM, 6 hr
  mortality at 0.049 µM: 0%
6 h, read-out: % Mortality R1 + R2, Trial 2, contact assay, dose 0.20 μM, 6 hr
  mortality at 0.2 µM: 0%
6 h, read-out: % Mortality R1 + R2, Trial 2, contact assay, dose 0.78 μM, 6 hr
  mortality at 0.78 µM: 0%
6 h, read-out: % Mortality R1 + R2, Trial 2, contact assay, dose 3.125 μM, 6 hr
  mortality at 3.125 µM: 0%
6 h, read-out: % Mortality R1 + R2, Trial 2, contact assay, dose 12.5 μM, 6 hr
  mortality at 12.5 µM: 10%
6 h, read-out: % Mortality R1 + R2, Trial 2, contact assay, dose 50 μM, 6 hr
  mortality at 50 µM: 100%
12 h, read-out: % Mortality R1 + R2, Trial 1, contact assay, dose 0.049 μM, 12 hr
  mortality at 0.049 µM: 0%
12 h, read-out: % Mortality R1 + R2, Trial 1, contact assay, dose 0.20 μM, 12 hr
  mortality at 0.2 µM: 0%
12 h, read-out: % Mortality R1 + R2, Trial 1, contact assay, dose 0.78 μM, 12 hr
  mortality at 0.78 µM: 0%
12 h, read-out: % Mortality R1 + R2, Trial 1, contact assay, dose 3.125 μM, 12 hr
  mortality at 3.125 µM: 0%
12 h, read-out: % Mortality R1 + R2, Trial 1, contact assay, dose 12.5 μM, 12 hr
  mortality at 12.5 µM: 0%
12 h, read-out: % Mortality R1 + R2, Trial 1, contact assay, dose 50 μM, 12 hr
  mortality at 50 µM: 100%
12 h, read-out: % Mortality R1 + R2, Trial 2, contact assay, dose 0.049 μM, 12 hr
  mortality at 0.049 µM: 0%
12 h, read-out: % Mortality R1 + R2, Trial 2, contact assay, dose 0.20 μM, 12 hr
  mortality at 0.2 µM: 0%
12 h, read-out: % Mortality R1 + R2, Trial 2, contact assay, dose 0.78 μM, 12 hr
  mortality at 0.78 µM: 0%
12 h, read-out: % Mortality R1 + R2, Trial 2, contact assay, dose 3.125 μM, 12 hr
  mortality at 3.125 µM: 0%
12 h, read-out: % Mortality R1 + R2, Trial 2, contact assay, dose 12.5 μM, 12 hr
  mortality at 12.5 µM: 80%
12 h, read-out: % Mortality R1 + R2, Trial 2, contact assay, dose 50 μM, 12 hr
  mortality at 50 µM: 100%
24 h, read-out: % Mortality R1 + R2, Trial 1, contact assay, dose 0.049 μM, 24 hr
  mortality at 0.049 µM: 0%
24 h, read-out: % Mortality R1 + R2, Trial 1, contact assay, dose 0.20 μM, 24 hr
  mortality at 0.2 µM: 0%
24 h, read-out: % Mortality R1 + R2, Trial 1, contact assay, dose 0.78 μM, 24 hr
  mortality at 0.78 µM: 0%
24 h, read-out: % Mortality R1 + R2, Trial 1, contact assay, dose 3.125 μM, 24 hr
  mortality at 3.125 µM: 0%
24 h, read-out: % Mortality R1 + R2, Trial 1, contact assay, dose 12.5 μM, 24 hr
  mortality at 12.5 µM: 90%
24 h, read-out: % Mortality R1 + R2, Trial 1, contact assay, dose 50 μM, 24 hr
  mortality at 50 µM: 100%
24 h, read-out: % Mortality R1 + R2, Trial 2, contact assay, dose 0.049 μM, 24 hr
  mortality at 0.049 µM: 0%
24 h, read-out: % Mortality R1 + R2, Trial 2, contact assay, dose 0.20 μM, 24 hr
  mortality at 0.2 µM: 0%
24 h, read-out: % Mortality R1 + R2, Trial 2, contact assay, dose 0.78 μM, 24 hr
  mortality at 0.78 µM: 0%
24 h, read-out: % Mortality R1 + R2, Trial 2, contact assay, dose 3.125 μM, 24 hr
  mortality at 3.125 µM: 70%
24 h, read-out: % Mortality R1 + R2, Trial 2, contact assay, dose 12.5 μM, 24 hr
  mortality at 12.5 µM: 100%
24 h, read-out: % Mortality R1 + R2, Trial 2, contact assay, dose 50 μM, 24 hr
  mortality at 50 µM: 100%
48 h, read-out: % Mortality R1 + R2, Trial 1, contact assay, dose 0.049 μM, 48 hr
  mortality at 0.049 µM: 40%
48 h, read-out: % Mortality R1 + R2, Trial 1, contact assay, dose 0.20 μM, 48 hr
  mortality at 0.2 µM: 20%
48 h, read-out: % Mortality R1 + R2, Trial 1, contact assay, dose 0.78 μM, 48 hr
  mortality at 0.78 µM: 30%
48 h, read-out: % Mortality R1 + R2, Trial 1, contact assay, dose 3.125 μM, 48 hr
  mortality at 3.125 µM: 90%
48 h, read-out: % Mortality R1 + R2, Trial 1, contact assay, dose 12.5 μM, 48 hr
  mortality at 12.5 µM: 100%
48 h, read-out: % Mortality R1 + R2, Trial 1, contact assay, dose 50 μM, 48 hr
  mortality at 50 µM: 100%
48 h, read-out: % Mortality R1 + R2, Trial 2, contact assay, dose 0.049 μM, 48 hr
  mortality at 0.049 µM: 0%
48 h, read-out: % Mortality R1 + R2, Trial 2, contact assay, dose 0.20 μM, 48 hr
  mortality at 0.2 µM: 40%
48 h, read-out: % Mortality R1 + R2, Trial 2, contact assay, dose 0.78 μM, 48 hr
  mortality at 0.78 µM: 0%
48 h, read-out: % Mortality R1 + R2, Trial 2, contact assay, dose 3.125 μM, 48 hr
  mortality at 3.125 µM: 100%
48 h, read-out: % Mortality R1 + R2, Trial 2, contact assay, dose 12.5 μM, 48 hr
  mortality at 12.5 µM: 100%
48 h, read-out: % Mortality R1 + R2, Trial 2, contact assay, dose 50 μM, 48 hr
  mortality at 50 µM: 100%
